Measurements reported in paper PMC10058894, “Bioactive C21 Steroidal Glycosides from Euphorbia kansui Promoted HepG2 Cell Apoptosis via the Degradation of ATP1A1 and Inhibited Macrophage Polarization under Co-Cultivation” (Molecules, 2023).
Like-named read-outs stand apart in the source and are kept apart here.

How the values were obtained:
Format in all cases: cell-based
Huh-7 cells = test: MTT assay, cell viability of Huh-7 cells; conditions: Homo sapiens, Huh-7; MTT; read-out: Huh-7 IC50
Excerpt: 2. The anti-proliferation of compound 5 on Huh-7 cells
We tested another hepatoma cell line (Huh-7) to validate effect of compound 5. L02 (normal hepatocytes), HepG2 and Hub-7 cells were used to discuss the effect of 5. […]
of 5 on Huh-7 cell was (24.49±[…]) μM (Table S1). The morphology and apoptosis of the cells by reversed microscope and flow cytometry, respectively.
Second, the expression and phosphorylation of ATP1A1 were detected by Western blot analysis in L02, HepG2 and Huh-7 cells. Compared with L02 group, the expression of ATP1A1 was higher in HepG2 and Huh-7 cells, but there was no significant difference in the phosphorylation of ATP1A1 (Figure […]
At last, the effect of 5 on the expression and the phosphorylation of ATP1A1 in Huh-7 cells was […]
the phosphorylation of ATP1A1. The result was consistent with that observed in HepG2 cells (Figure […]
Table S1 Cell viability of Huh-7 cell treated by compound 5

HepG2 cells = test: MTT assay, cell viability of HepG2 cells
Method: (§1) HepG2 cells (1 × 10^4 cells/well) or RAW264.7 cells ([…]) were incubated in 96T wells for 24 h. Then, HepG2 cells were treated with compounds or Adriamycin for 48 h. In addition, RAW264.7 cells were treated with compounds for 24 h. Then, 0.5% MTT (Sigma, Saint Louis, MO, USA) was added to 20 μL/well for 3.5 h. The supernatant was discarded, and DMSO (150 μL/well) was added to dissolve the purple formazan. Cells were agitated for 15 min at room temperature, and the absorbance at 490 nm was recorded by SpetraMax M2 (Molecular Devices, San Jose, CA, USA).

RAW264.7 cells = test: MTT assay, cell viability of RAW264.7 cells; conditions: half inhibitory of RAW264.7 cells, 24 h
Method: as §1
(§2) RAW264.7 cells (8 × 10^4 cells/well) were incubated in 96T wells with DMEM for 24 h and then treated with compounds and LPS (1 μg/mL) for 24 h; this included the control group and LPS group. Then, the cell supernatant was collected for nitric oxide production assay. Next, 100 uL/well PBS was added to 96T wells, then 0.5% MTT (Sigma, Saint Louis, MO, USA) was added to 20 μL/well for 3.5 h. DMSO (150 μL/well) was added to dissolve the purple formazan. Cells were agitated for 15 min at room temperature, and the absorbance at 490 nm was recorded by SpetraMax M2 (Molecular Devices, San Jose, CA, USA). The NO inhibition rate (%) = (ODLPS group − ODcompound group)/(ODLPS group-ODcontrol group) × 100%. The IC50 value refers to the inhibitory of nitric oxide production of LPS-stimulated RAW264.7 cells. Then, 70 uL of each cell supernatant sample was added into a new 96T plate, and Griess A and Griess B were added separately. Then, the absorbance value at 540 nm was detected and then brought into the standard curve to assay the concentration of NO. The cell survival rate (%) = (ODcompound group − ODblank group)/(ODcontrol group − ODblank group) × 100%. The half concentration of the cell death (CC50) value refers to the concentration of compound 5 when 50% of RAW264.7 cells die. The iNOS inhibitor ([…], L-NMMA) was selected as the positive control. The levels of cytokines (IL-1β, IFN-γ, IL-10, TNF-α, and IL-6) in the cell supernatant were determined using an ELISA kit (Novus Biologicals, Shanghai, China, Lot: 834472, 770118, 772051, 486956, 602865). When the process was conducted according to the manufacturer’s instructions, the absorbance was read at 450 nm/570 nm in a SpectraMax 340PC microplate spectrophotometer (Molecular Devices, San Jose, CA, USA).

[1] = test system: NO production of LPS-stimulated RAW264.7 cells; test: Nitric oxide production in LPS-stimulated RAW264.7 cells (Griess); conditions: LPS (1 μg/mL)-stimulated RAW264.7 cells, 24 h, read-out: RAW264.7 IC50 (inhibition of nitric oxide production)
Method: as §2

[2] = MTT assay, cell viability of RAW264.7 cells; conditions: mouse, half inhibitory of RAW264.7 cells
Method: as §1, §2

ATP1A1 = ATP1A1 (Homo sapiens, UniProt P05023); test: ATP1A1 level and location in HepG2 cells (western blot, fluorescence staining, lysosomal colocalization); parameters: we focused on the regulatory effect of 5 on ATP1A1 in HepG2 cells; endogenous in cells; host or cells: HepG2; conditions: HepG2; 5 25 μmol∙L−1, digitonin 10, MK 2206 40, FR 180204 200 nmol∙L−1; western blot
Method: HepG2 cells (4 × 10^5 cells/well) were incubated in confocal dishes with DMEM for 24 h and then treated with compounds for 48 h. Then, the cells were treated with 0.1% Triton X-100 for 10 min and washed with PBS five times. Finally, the cells were dyed with anti-ATP1A1 at 4 °C overnight. Nuclear staining with DAPI (1 μg∙mL^−1) was added for 7 min in the dark, and the cells were washed. The stained images were captured under a laser scanning confocal microscope (Nikon A1 AIR MP+, Tokyo, Japan). HepG2 cells (5 × 10^5 cells/well) were incubated in 6-well plates in complete DMEM. Cells were treated with compounds for 24 h. Then, the cells were stained with Annexin V/PI for 30 min at 4 °C in the dark, and apoptosis analysis was carried out by laser scanning confocal microscopy.
Protein samples were prepared using a RIPA lysis buffer. The concentration of the protein was analyzed using a nucleic acid and protein microanalyzer (Molecular Devices, San Jose, CA, USA). SDS–PAGE was performed to separate the proteins, which were then electrotransferred onto a PVDF membrane. The membrane was incubated with antibodies at 4 °C overnight. Next, the membrane was washed and incubated with an HRP-conjugated secondary antibody (Beyotime, BeiJing, China). Finally, signals were detected by the ECL method (Beyotime, BeiJing, China) and analyzed using ImageJ software.

Row | Molecule | IC50 [1] [µM] | IC50 (HepG2 cells; 48 h) [µM] | CC50 (RAW264.7 cells) [µM] | also measured
1 | COc1cccc2c1C(=O)c1c(O)c3c(c(O)c1C2=O)C[C@@](O)(C(=O)CO)C[C@@H]3O[C@H]1C[C@H](N)[C@H](O)[C@H](C)O1 [Adr, adriamycin, reference compound] | – | – | – | IC50 (Huh-7 cells): 4.49 ± 0.96 µM; IC50 (HepG2 cells; Homo sapiens, HepG2, 48 h): 6.93 ± 1.23 µM; IC50 (HepG2 cells; Homo sapiens, HepG2, fractions A–E, 48 h): 5.98 ± 2.06 µg/mL
2 | CC(=O)[C@]1(O)CC[C@@]2(O)[C@]1(C)[C@H](O)C[C@@H]1[C@@]3(C)CC[C@H](O)CC3=CC[C@]12O [Compound 3, Deacylmetaplexigenin] | > 50 | > 50 | > 50 | –
3 | CC(=O)[C@]1(O)CC[C@@]2(O)[C@]1(C)[C@H](OC(=O)/C=C/c1ccccc1)C[C@@H]1[C@@]3(C)CC[C@H](O)CC3=CC[C@]12O [Compound 4, Kidjolanin] | 30.7 ± 4.08 | > 50 | > 50 | –
4 | CC1(C)CC[C@]2(C(=O)O)CC[C@]3(C)C(=CC[C@@H]4[C@@]5(C)C[C@@H](O)[C@H](O)C(C)(C)[C@@H]5CC[C@]43C)[C@@H]2C1 [Compound 9, Maslinic acid] | – | – | – | CC50 at 24 h [2]: > 50 µM; IC50 ([1]; Mus musculus): 17.4 ± 2.21 µM; IC50 (HepG2 cells; Homo sapiens, HepG2, 48 h): > 50 µM
5 | Nc1[nH]nc2nnc(-c3c(-c4ccccc4)nn4ccccc34)cc12 [FR 180204, reference compound] | – | – | – | expression of ATP1A1 (comparison with inhibitors) (ATP1A1): not similarly observed
6 | [H]/N=C(/NC)NCCC[C@H](N)C(=O)O [L-NMMA, NG-monnomycin-L-arginine, reference compound] | – | – | – | CC50 at 24 h [2]: > 50 µM; IC50 ([1]; Mus musculus): 21.2 ± 3.26 µM
7 | NC1(c2ccc(-c3nc4ccn5c(=O)[nH]nc5c4cc3-c3ccccc3)cc2)CCC1 [MK 2206, reference compound] | – | – | – | expression of ATP1A1 (comparison with inhibitors) (ATP1A1): not similarly observed
8 | C[C@@H]1CC[C@@]2(OC1)O[C@H]1[C@@H](O)[C@H]3[C@@H]4CC[C@H]5C[C@@H](O[C@@H]6O[C@H](CO)[C@H](O[C@@H]7O[C@H](CO)[C@@H](O)[C@H](O[C@@H]8OC[C@@H](O)[C@H](O)[C@H]8O)[C@H]7O[C@@H]7O[C@H](CO)[C@H](O)[C@H](O[C@@H]8O[C@H](CO)[C@@H](O)[C@H](O)[C@H]8O)[C@H]7O)[C@H](O)[C@H]6O)[C@H](O)C[C@]5(C)[C@H]4CC[C@]3(C)[C@H]1[C@@H]2C [digitonin, reference compound] | – | – | – | expression of ATP1A1 (comparison with inhibitors) (ATP1A1): not similarly observed
9 | Caudatin 3-O-β-D-digitoxopyranoside [Compound 12] | > 50 | > 50 | > 50 | –
10 | Kidjoranin 3-O-β-digitoxopyranoside [Compound 11] | > 50 | > 50 | > 50 | –

Continued, in another order:

Row | IC50 [1] [µM] | IC50 (HepG2 cells; 48 h) [µM] | Molecule | CC50 (RAW264.7 cells) [µM] | also measured
11 | 1.77 ± 0.34 | 12.6 ± 2.98 | CO[C@H]1C[C@@H](O[C@H]2[C@H](C)O[C@H](O[C@H]3[C@@H](C)O[C@H](O[C@H]4[C@@H](OC)C[C@H](O[C@@H]5CC[C@]6(C)C(=CCC(=O)[C@H]6C[C@H](OC(=O)/C=C/c6ccccc6)[C@]6(C)C(=O)CC[C@]6(O)[C@@H](C)OC(C)=O)C5)O[C@@H]4C)C[C@H]3OC)C[C@H]2OC)O[C@H](C)[C@H]1O [Compound 7, Wilfoside G] | 26.2 ± 2.22 | –
12 | 9.1 ± 2.27 | 41.1 ± 6.05 | Cynotophylloside B [Compound 2] | > 50 | –
13 | 17.4 ± 3.01 | > 50 | Cynotophylloside J [Compound 8] | > 50 | –
14 | > 50 | 46.4 ± 3.09 | Eupokanu G [Compound 1] | > 50 | –
15 | 2.78 ± 0.44 | 22.7 ± 4.02 | Kidjoranin 3-O-α-diginopyranosyl-(1→4)-β-cymaropyranoside [Compound 10] | 24.1 ± 3.24 | –
16 | 3.32 ± 0.43 | 27.3 ± 3.48 | Kidjoranin-3-O-β-D-cymaropyranoside [Compound 6] | 35.2 ± 5.12 | –
